The values that follow come from patent US6165493A, “"Methods and compositions for decreasing the frequency of HIV, herpesvirus and sexually transmitted bacterial infections"” (New York Blood Center, Inc., priority 1998, dated 2000).

Peptide text beside a SMILES is read from it.

For series [1], the system named is HIV-1. In words: inhibition of fusion between HIV-1 IIIB infected H9 cells and uninfected MT-2 cells. In kind it is cell-based. Conditions: Human immunodeficiency virus 1, MT2, 1 h, read-out: Inhibition of Cell Fusion ED50 ± SD (effective dose for 50% inhibition of HIV-1 induced cell fusion); Table 1A; -- = none at 1000 μg/ml.
In series [2] the test system is HIV-1. In words: disintegration of HIV-1 measured by release of p24. The arrangement: species or system HIV-1 IIIB. The note with it: 5 minutes at 37° C. On the procedure: With respect of FIG. 3, serial dilutions of untreated and treated HIV-1 were tested for p24 by ELISA. As a positive control, HIV-1 treated with the detergent NP40 was also tested. The results obtained with the "[…]"-glycerol formulation containing PVP and Crospovidone and N-40 were identical and indicated an 100-fold increase of released p24 antigen, as compared to background levels corresponding to untreated virus. The infectivity of HIV-1 was also eliminated by treatment with the "[…]"-glycerol formulation containing PVP and Crospovidone.
To determine whether or not the CAP Formulations affect the integrity of HIV-1, a preparation of purified virus (strain IIIB; 5 μl; 1.52×10^10 virus particles/ml; Advanced Biotechnologies, Columbia, Md.) was mixed with 45 μl of 0.14 M NaCl and 50 μl of the respective CAP Formulation, each prewarmed to 37° C. After 5 minutes at 37° C., 400 μl of 0.14 M NaCl were added, and the mixture was filtered through a 0.45μ filter prewashed with 0.14 M NaCl, 0.01 M Tris pH 7.2, 0.02 NaN3 (TS). Serial 5-fold dilutions of the filtrate were tested by ELISA for the p24 antigen, as described above. In control experiments, either untreated HIV-1 IIIB or virus treated with the detergent NP40 (final concentration 5 mg/ml; 5 minutes at 37° C.) were equally diluted and tested for the p24 antigen. […]

The test system of series [3] is HIV-1. Conditions: cited from earlier work.
Another series has as its system HSV-2. Conditions: cited from earlier work.
In a further series the test system is Chlamydia trachomatis. Conditions: cited from earlier work.
The conditions of series [4]: some N-9 formulations; cited from earlier work.
Series [5] deals with heterosexual HIV-1, gonorrhea and chlamydia transmission. Conditions: one of the N-9 formulations; cited from earlier work.

In the case of `CC1=CC(=O)NS(=O)(=O)O1` [Acesulfame Potassium], the IC50 in the series with HIV-1 [1] is greater than 1000 µg/mL.

In the case of `CCCCCCCCCCCCCCCC(=O)OC[C@H](O)[C@H]1OC(=O)C(O)=C1O` [Ascorbyl Palmitate], in the series with HIV-1 [1], the IC50 was greater than 1000 µg/mL.

On to `COC(=O)[C@H](Cc1ccccc1)NC(=O)[C@@H](N)CC(=O)O` [Aspartame] (HELM PEPTIDE1{D.F.[CO[*:1]]}$$$$V2.0), for which, in the series with HIV-1 [1], the IC50 was greater than 1000 µg/mL.

As for `O=C(OCc1ccccc1)c1ccccc1` [Benzyl Benzoate], the IC50 in the series with HIV-1 [1] was greater than 1000 µg/mL.

`O=[N+]([O-])C(Br)(CO)CO` [Bronopol]: in the series on HIV-1 [1], the IC50 was greater than 1000 µg/mL.

For `Cc1cc(C(C)(C)C)c(O)c(C(C)(C)C)c1` [Butylated Hydroxytoluene], the IC50 in the series on HIV-1 [1] was greater than 1000 µg/mL.

Take `CCCCOC(=O)c1ccc(O)cc1` [Butylparaben]: the IC50 with HIV-1 [1] was greater than 1000 µg/mL.

On to `Cc1cc(O)ccc1Cl` [Chlorocresol], for which, in the series on HIV-1 [1], the IC50 was greater than 1000 µg/mL.

Regarding `CCCCOC(=O)CCCCCCCCC(=O)OCCCC` [Dibutyl Sebacate], the IC50 in the series with HIV-1 [1] is greater than 1000 µg/mL.

In the case of `CCOC(=O)c1ccc(O)cc1` [Ethylparaben], the IC50 with HIV-1 [1] is greater than 1000 µg/mL.

Regarding `O=C(NCNC(=O)NC1C(=O)NC(=O)N1CO)NC1C(=O)NC(=O)N1CO` (centres unmarked) [Imidurea], the IC50 in the series with HIV-1 [1] was greater than 1000 µg/mL.

For `Cc1occc(=O)c1O` [Maltol], in the series with HIV-1 [1], the IC50 was greater than 1000 µg/mL.

For `CC1CCC(C(C)C)C(O)C1` (centres unmarked) [Menthol], in the series with HIV-1 [1], the IC50 is greater than 1000 µg/mL.

Consider `COC(=O)c1ccc(O)cc1` [Methylparaben], for which the IC50 in the series on HIV-1 [1] is greater than 1000 µg/mL.

For `CCCOC(=O)c1cc(O)c(O)c(O)c1` [Propyl Gallate], the IC50 with HIV-1 [1] was greater than 1000 µg/mL.

Turning to `CC1COC(=O)O1` (centres unmarked) [Propylene Carbonate], the IC50 with HIV-1 [1] is greater than 1000 µg/mL.

For the compound `CCCOC(=O)c1ccc(O)cc1` [Propylparaben], the IC50 with HIV-1 [1] is greater than 1000 µg/mL.

As to `O=C1NS(=O)(=O)c2ccccc21` [Saccharin], the IC50 in the series on HIV-1 [1] is greater than 1000 µg/mL.

As to `O=S(=O)(O)NC1CCCCC1` [Sodium Cyclamate], the IC50 with HIV-1 [1] is greater than 1000 µg/mL.

For the compound `CCCCCCCCCCCCCCCCCCOC(=O)/C=C/C(=O)[O-].[Na+]` [Sodium Stearyl Fumarate], the IC50 in the series with HIV-1 [1] is greater than 1000 µg/mL.

Take `C/C=C/C=C/C(=O)O` [Sorbic Acid]: in the series on HIV-1 [1], the IC50 is greater than 1000 µg/mL.

In the case of `CC(=O)OCC(COC(C)=O)OC(C)=O` [Triacetin], in the series on HIV-1 [1], the IC50 is greater than 1000 µg/mL.

In the case of `COc1cc(C=O)ccc1O` [Vanillin], the IC50 with HIV-1 [1] was greater than 1000 µg/mL.

As for NP40, the “increase of released p24 antigen compared to untreated virus” value with HIV-1 [2] is reported as 100 fold.

Take nonoxynol-9 [N-9]: the “in vitro inactivation of HIV-1” value with HIV-1 [3] is given as “shown to inactivate in vitro”. Moreover, the “in vitro inactivation of HSV-2” value in the series on HSV-2 is “shown to inactivate in vitro”. The “in vitro inactivation of Chlamydia trachomatis” value in the series on Chlamydia trachomatis is listed as “shown to inactivate in vitro”. In addition, in series [4], the clinical adverse effects result is given as “adverse effects”. Further, the “efficacy in decreasing rate of heterosexual HIV-1, gonorrhea and chlamydia transmission” value in series [5] was “lack of efficacy”.
